Assay results published in US9050266B2, “Phenol derivatives and pharmaceutical or cosmetic use thereof” (GALDERMA RESEARCH & DEVELOPMENT, priority 2009, dated 2015).

Tests used:
[1] = biological target: T1, receptors of AR type (androgen receptor) (Homo sapiens, UniProt P10275); assay: AR transactivation test in the PALM (PC3 Androgen receptor Luciferse MMTV) cell line, cross curves against methyltrienolone; format: cell-based; conditions: cross curves vs reference agonist methyltrienolone, read-out: Kdapp (apparent dissociation constant)
T1 construct: expressed in transfected cells; host or cells: PALM cell line (PC3 stably transfected with PMMTV-neo-Luc and pSG5puro-AR)
T1 sequence (P10275 1-920): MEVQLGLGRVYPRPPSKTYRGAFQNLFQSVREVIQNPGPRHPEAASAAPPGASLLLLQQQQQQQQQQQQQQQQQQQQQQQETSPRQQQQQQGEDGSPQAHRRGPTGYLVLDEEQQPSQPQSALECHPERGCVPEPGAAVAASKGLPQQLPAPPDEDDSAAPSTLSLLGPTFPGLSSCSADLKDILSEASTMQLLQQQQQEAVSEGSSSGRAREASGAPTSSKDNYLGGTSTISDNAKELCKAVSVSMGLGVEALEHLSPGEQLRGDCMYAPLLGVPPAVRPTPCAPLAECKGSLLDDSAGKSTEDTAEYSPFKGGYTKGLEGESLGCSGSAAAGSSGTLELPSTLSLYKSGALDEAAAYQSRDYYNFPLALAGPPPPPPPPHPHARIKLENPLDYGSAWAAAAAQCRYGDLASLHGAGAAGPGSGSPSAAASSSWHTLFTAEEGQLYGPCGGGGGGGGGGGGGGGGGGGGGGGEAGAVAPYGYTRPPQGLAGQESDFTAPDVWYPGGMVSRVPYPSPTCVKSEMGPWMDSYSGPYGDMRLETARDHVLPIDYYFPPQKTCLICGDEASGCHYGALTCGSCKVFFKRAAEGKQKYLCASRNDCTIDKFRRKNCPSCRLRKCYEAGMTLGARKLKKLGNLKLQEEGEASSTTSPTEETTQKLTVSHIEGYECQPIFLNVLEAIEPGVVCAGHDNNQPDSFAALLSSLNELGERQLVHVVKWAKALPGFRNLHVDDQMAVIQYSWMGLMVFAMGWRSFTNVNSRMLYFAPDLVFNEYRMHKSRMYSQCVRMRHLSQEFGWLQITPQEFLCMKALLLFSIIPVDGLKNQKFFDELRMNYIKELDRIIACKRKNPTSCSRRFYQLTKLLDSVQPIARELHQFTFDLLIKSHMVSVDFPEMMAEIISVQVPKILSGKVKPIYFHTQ
Description: The compounds according to the invention show inhibitory properties on receptors of AR type. This AR receptor-inhibiting activity is measured in a transactivation test through the KdR (resting), KdA (active) and Kdapp (apparent) dissociation constants according to the method set out in J. Molecular Biology (1965), 12(1), 88-118, Monod J. et al.
The expression “AR-type receptor inhibitor” means, according to the invention, any compound which has a Kdapp dissociation constant of less than or equal to 1 μM, and a KdR/KdA ratio ≦10, in a transactivation test.
The transactivation test is carried out in the PALM (PC3 Androgen receptor Luciferse MMTV) cell line which is a stable transfectant containing the PMMTV-neo-Luc (reporter gene) and pSG5puro-AR plasmids.
In this study, the affinity of each product for the 2 receptor states (KdR and KdA) is determined, as is an apparent Kd (KdApp). This constant is a result of the 2 Kd, but also depends on the initial equilibrium of the receptor between the active state and the resting state (L0) and on its expression level. It is determined by means of the following formula: 1/KdApp=(L0/(1+L0))×(1/KdR)+(1/(1+L0))×(1/KdA)
To determine these constants, “cross curves” of the test product against a reference agonist, methyltrienolone, are produced in 96-well plates. The test product is used at 10 concentrations and the reference agonist at 7 concentrations.

A Kd [1] of 40 nM and a melting point of 103 °C were found for COc1cccc(NCc2ccccc2O)n1 [Example 1, 2-[(6-Methoxypyridin-2-ylamino)methyl]phenol] in this work.
A Kd [1] of 2 nM was found for Oc1ccccc1CNc1cccc(Br)n1 [Example 2, 2-[(6-bromo-pyridin-2-ylamino)-methyl]-phenol] in this work.
A Kd [1] of 200 nM was found for N#Cc1cccc(NCc2ccccc2O)n1 [Example 4, 6-(2-hydroxy-benzyl-amino)-pyridine-2-carbonitrile] in this work.
A melting point of 168 °C was found for Oc1ccccc1CNc1cncc(Br)n1 [Example 13, 2-[(6-Bromopyrazin-2-ylamino)methyl]phenol] in this work.
A Kd [1] of 1000 nM was found for Cc1cc(Cl)nc(NCc2ccccc2O)c1 [Example 18, 2-[(6-chloro-4-methyl-pyridin-2-ylamino)-methyl]-phenol] in this work.
A Kd [1] of 8 nM and a melting point of 158 °C were found for COc1cncc(NCc2ccccc2O)n1 [Example 19, 2-[(6-Methoxypyrazin-2-ylamino)methyl]phenol] in this work.
A melting point of 161 °C was found for COc1nccc(NCc2ccccc2O)n1 [Example 20, 2-[(2-Methoxypyrimidin-4-ylamino)methyl]phenol] in this work.
A melting point of 61 °C was found for CSc1cccc(NCc2ccccc2O)n1 [Example 22, 2-[(6-Methylsulphanylpyridin-2-ylamino)methyl]phenol] in this work.
A melting point of 133 °C was found for C[S+]([O-])c1cccc(NCc2ccccc2O)n1 (centres unmarked) [Example 23, 2-[(6-Methanesulphinylpyridin-2-ylamino)methyl]phenol] in this work.
